Test results from publication PMC10499603, “Polθ is phosphorylated by PLK1 to repair double-strand breaks in mitosis” (Nature, 2023).
Blank lines part the entries; values can stand above or below the molecule they belong to.

Columns and labels:
[1] = system: Polθ foci formation in RPE-1 cells expressing GFP–Polθ; experiment: siRNA screen for ionizing radiation-induced Polθ foci formation; format: cell-based, human; details: 10 nM siRNA, 72 h, then 5 Gy, 2 h; cells with at least 5 Polθ foci; median RZ score of the three siRNAs, three replicate experiments
From the text: The Human DDR siRNA library comprising 1,746 single siRNAs representing 582 human genes (3 siRNAs per gene) was obtained from ThermoFisher Scientific (A30089). For controls, siRNAs targeting GL2, kinesin family member 11 (KIF11) and GM130 were used to assess transfection efficacy and induced cell toxicity. FANCD2 siRNA ([…]dT, defined as FANCD2-ctrl in Supplementary Table 1) was used as a positive control inhibiting Polθ foci formation. RPE-1 cells expressing GFP–Polθ (250 cells per well in 384-well plates) were grown overnight. siRNAs were incubated 15 min with 0.05 μl Interferin reagent (Polyplus transfection) and Opti-MEM (ThermoFisher Scientific) prior to being transferred into each 384-well plate wells, to obtain a 10 nM final concentration. Cells were irradiated 72 h after transfection, at a dose of 5 Gy (226 s) with the CIXD irradiator (RadeXp platform, Institut Curie) and incubated at 37 °C, 5% CO2 for 2 h. […] Polθ was then identified as organelles in the nuclei area and quantified by the average intensity of pixels within the defined organelles region. […] Corrected values were normalized as follows: sample median and median absolute deviation (MAD) were calculated from the Interferin-treated population of each internal plate data points (named as Ref pop) and used to compute robust Z-scores[59] […]

[2] = system: Polθ foci in mitosis; experiment: Polθ foci in mitosis after siRNA; format: cell-based, human; details: siRNA knockdown
Protocol: (§1) Transfection of siRNA oligonucleotides (Eurofins) was performed using Lipofectamine RNAiMax (ThermoFisher Scientific) following the manufacturer’s instructions.
(§2) Cells grown on coverslips were fixed for 15 min in 2% paraformaldehyde, permeabilized for 10 min in 0.5% Triton X-100, blocked for 30 min in BSA 5%, 0.1% Triton X-100, immunostained for 1 h with primary antibodies, 45 min with secondary antibodies (Highly Cross-Adsorbed Secondary Antibodies Alexa Fluor, ThermoFisher Scientific) and mounted Vectashield mounting medium containing DAPI (Vector Laboratories). The same protocol was applied to mitotic cells, which were collected by shake off and centrifuged onto glass slides using a cytospin centrifuge (400g, 5 min) before fixation. […] Biotin azide-EdU click-it reaction was performed after fixation and permeabilization by incubating cells with a mix of Picolyl biotin, CuSO4, THPTA (Jena Bioscience) and sodium ascorbate in PBS for 30 min in the dark followed by an incubation with streptavidin conjugated Alex fluor 647 antibody (ThermoFisher Scientific) during 1 h at room temperature. Images were taken at 60× or 100× magnification using Upright Spinning disk Confocal Microscope (Roper/Zeiss) or at 40× magnification using DeltaVision (Deconvolution) Image Restoration Microscope. […] Images were analysed using the Fiji software. […]

[3] = system: Polθ foci in interphase; experiment: Polθ foci in interphase after siRNA; format: cell-based, human; details: siRNA knockdown
Protocol: as §1, §2

[4] = system: PLK1; experiment: Real-time NMR phosphorylation of Polθ fragments by PLK1; format: biochemical; details: SOFAST HMQC series, 298 K, 8 h, PLK1 1:200
Protocol: (§3) The NMR experiments were performed on the Polθ protein fragments (E1424–Q1503) and (E1540–S1660), either ^15N- or ^15N,^13C-labelled, and dissolved in the NMR buffer (with in addition 7% v/v D2O and EDTA-free Protease Inhibitor Cocktail 1× (Roche)). Most experiments were recorded on a 700 MHz Bruker ADVANCE NEO spectrometer equipped with a triple resonance cryogenically cooled probe. ^1HN, ^13Cα, ^13Cβ, ^13CO and ^15N resonance frequencies of the non-phosphorylated fragments were assigned at 283 K using 2D ^1H–^15N SOFAST HMQC, 3D HNCA, 3D HNCACB, 3D CBCA(CO)NH, 3D HNCO, 3D HN(CA)CO and 3D HN(CA)NNH experiments. All 3D experiments were recorded using non uniform sampling (NUS: 40–50%). To monitor phosphorylation by PLK1, either ^15N- or ^15N,^13C-labelled Polθ protein fragments were mixed with PLK1, and a series of 16 2D NMR ^1H-^15N SOFAST HMQC experiments were recorded at 298 K during 8 h, each experiment being a 1,536 × 160 dataset acquired with 80 scans during 30 min[50]. The temperature was then set to 283 K and 2D ^1H–^15N SOFAST HMQC, 3D HNCA, 3D HNCACB, 3D CBCA(CO)NH and 3D HN(CA)NNH experiments were recorded, in order to assign the resonance frequencies of the phosphorylated fragments (here again with NUS at 40–50%). […]

[5] = system: PLK1; experiment: In vitro kinase assay of Polθ immunoprecipitates with recombinant PLK1; format: biochemical; details: GFP–Polθ immunoprecipitate, recombinant PLK1 50, 100 or 500 ng, 5 μM ATP, [γ-32P]ATP, 30 min, 30 °C, autoradiography
Protocol: Immunoprecipitates of GFP–Polθ (2 h GFP trap at 4 °C, followed by 2 washes with 150 mM NaCl buffer and 1 wash with 300 mM NaCl) or 1.2 μg of RBER-CDC25tide (Reaction Biology, 0590-0000-1) were resuspended in 30 μl kinase buffer (Cell Signaling, 9802) containing 50, 100 or 500 ng of recombinant PLK1 (Reaction Biology, 0183-0000-1) and 5 μM ATP and 5 μCi [γ-^32P]ATP. After incubation for 30 min at 30 °C, reactions were stopped on ice by the addition of 2× Laemmli buffer and boiling for 5 min at 95 °C. Samples were separated on a 4–8% Tris-acetate gel (or 10% SDS–PAGE for the CDC25 positive control), and phosphorylated ^32P-Polθ and CDC25 were detected by autoradiography.

[6] = system: TOPBP1; details: peptide on streptavidin beads, HeLa nuclear extract 350 μg, 2 h room temperature, immunoblot
Protocol: Peptides were coupled to streptavidin beads in 150 mM NaCl on a rotating wheel at room temperature, for 1 h. Beads were washed twice in 150 mM NaCl prior to use in pull-down assays. Nuclear extracts from HeLa cells (350 μg) or 2 ml of bacteria protein extracts were incubated with 1 nmol of desired streptavidin beads-coupled peptide, on a rotating wheel, for 2 h, at room temperature. After incubation, beads were washed three times using 150 mM NaCl RIPA buffer, and twice using 300 mM NaCl before elution in 2× Laemmli buffer. All buffers used were supplemented with phosphatase and protease inhibitors. Eluted proteins were analysed by SDS–PAGE to identify peptide partners. The same amount of peptides used for pull-downs was loaded into a separate gel, and biotin signal was detected in the migration front. […] 1628-P/S1635-P: biotin-[sequence]pSFIWSGAp[sequence]. S1628/S1635: biotin-[sequence].

[7] = molecular target: T1, TOPBP1 BRCT7-8 domain, TOPBP1 fragment (1264–1493) (UniProt Q92547 1264-1493); experiment: NMR titration; 2D 1H-15N spectra of 15N-labelled Polθ (E1424-Q1503), phosphorylated or not, without and with TOPBP1 BRCT7-8 at a 1:0.5 ratio; 25 mM HEPES, 50 mM NaCl, pH 7; details: both partners purified
T1 construct: source: bacteria protein extracts named for the peptide pull-down

[8] = molecular target: T2, TOPBP1 BRCT7-8 (Homo sapiens, UniProt Q92547); experiment: 2D NMR of 15N-labelled Polθ fragment with TOPBP1 BRCT7-8; format: binding; details: 2D 1H–15N, Polθ fragment:BRCT7-8 1:0.5, 25 mM HEPES, 50 mM NaCl, pH 7
T2 construct: GST (N); TEV cleavage site; made in house; host or cells: E. coli BL21 (DE3) Star
Protocol: as §3

T2 sequence (Q92547 1264-1493): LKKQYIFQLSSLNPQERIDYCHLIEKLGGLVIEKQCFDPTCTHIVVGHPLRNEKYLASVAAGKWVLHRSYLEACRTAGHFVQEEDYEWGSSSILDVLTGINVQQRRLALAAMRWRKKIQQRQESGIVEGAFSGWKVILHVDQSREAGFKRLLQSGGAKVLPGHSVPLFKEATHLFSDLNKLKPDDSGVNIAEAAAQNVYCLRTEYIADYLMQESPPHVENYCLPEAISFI
T1 sequence (Q92547 1264-1493): as above

Molecule: GUCUCCCAGAAGACAGUGAdTdT (sense GUCUCCCAGAAGACAGUGATT; chemistry not fully specified) [MDC1, siRNA targeting MDC1]
Robust z score_corrected_Cells multi-foci_MultiFoci (%) [1]: -2.42
Polθ foci formation in mitosis [2]: prevented the formation of Polθ foci in both interphase and mitosis
Polθ foci formation in interphase [3]: prevented the formation of Polθ foci in both interphase and mitosis

phosphorylation of Polθ by PLK1 [5]: direct phosphorylation of Polθ by PLK1
Molecule: Polθ: DNA polymerase theta
kinetics of Polθ phosphorylation by PLK1 [4]: fast kinetics of Polθ phosphorylation

Molecule: ACAAAUACAUGGCUGGUUAdTdT (guide ACAAAUACAUGGCUGGUUATT; chemistry not fully specified) [TOPBP1, siRNA targeting TOPBP1]
Polθ foci formation in mitosis [2]: suppressed Polθ foci (and filament) formation only in mitosis

Molecule: biotin-GSGTRQNHpSFIWSGApSFDLSPGLQRILDKVSS [1628-P/S1635-P]
interaction with TOPBP1 [6]: did not interact with TOPBP1

binding result [7]: binds
B1: phosphorylated recombinant Polθ fragment (E1424–Q1503) (domain or fragment, human, UniProt O75417 1424-1503, looked up)
chain: EENGLFLKKNEVSVTDSQLNSFLQGYQTQETVKPVILLIPQKRTPTGVEGECLPVPETSLNMSDSLLFDSFSDDYLVKEQ
modifications: 15N-labelled; phosphorylated by PLK1, sites include S1482, S1486, S1488 and S1493
notes: DNA polymerase theta (Polθ), human, residues E1424-Q1503; also called phosphorylated Polθ E1424–Q1503 fragment; Polθ protein fragment F1 (phosphorylated); source: E. coli BL21 (DE3) Star, purified (HisTrap, TEV cleavage, reverse HisTrap), then phosphorylated with PLK1; not shown: GB1, C-terminal, cleaved; His6, C-terminal, cleaved

binding result [7]: binds
B2: non-phosphorylated recombinant Polθ fragment (E1424–Q1503) (domain or fragment, human, UniProt O75417 1424-1503, looked up)
chain: EENGLFLKKNEVSVTDSQLNSFLQGYQTQETVKPVILLIPQKRTPTGVEGECLPVPETSLNMSDSLLFDSFSDDYLVKEQ
modifications: 15N-labelled
notes: DNA polymerase theta (Polθ), human, residues E1424-Q1503; also called non-phosphorylated Polθ fragment from Glu1424 to Gln1503; Polθ protein fragment F1; source: E. coli BL21 (DE3) Star, purified (HisTrap, TEV cleavage, reverse HisTrap); not shown: GB1, C-terminal, cleaved; His6, C-terminal, cleaved

B3: phosphorylated recombinant Polθ fragment (E1424–Q1503): recombinant Polθ fragment E1424–Q1503 phosphorylated by PLK1 (protein)
chain: EENGLFLKKNEVSVTDSQLNSFLQGYQTQETVKPVILLIPQKRTPTGVEGECLPVPETSLNMSDSLLFDSFSDDYLVKEQ
modifications: 15N-labelled; phosphorylated by PLK1, sites include S1482, S1486, S1488 and S1493; left off: GB1, C-terminal, cleaved | His6, C-terminal, cleaved
NMR signals lost upon addition of TOPBP1 BRCT7-8 [8]: NMR signals corresponding to the Polθ region (p-S1482–L1499) were lost upon addition of BRCT7-8

B4: non-phosphorylated recombinant Polθ (E1424–Q1503): recombinant Polθ fragment E1424–Q1503 from E. coli (protein, UniProt O75417 1424-1503, looked up, fragment)
chain: EENGLFLKKNEVSVTDSQLNSFLQGYQTQETVKPVILLIPQKRTPTGVEGECLPVPETSLNMSDSLLFDSFSDDYLVKEQ
NMR signals lost upon addition of TOPBP1 BRCT7-8 [8]: only a few NMR peaks were lost upon addition of TOPBP1 BRCT7-8
